Measurements: patent US12533408B2, “Treatment regimen for the treatment of autoimmune disorders” (Merck Patent GmbH, priority 2020, dated 2026)
Several values for one entry are separate records, joined by “and”; a condition that tells them apart may be missing. Equal entries are not always repeated. Entries after “also recorded” stand apart in the source; their conditions may differ.

Legend:
COVID-19 [1] = experiment: COVID-19 course in CLARIFY-MS and MAGNIFY-MS patients (case reports); assay type: in vivo, human
Source text: Disease course is reported for each of the 3 patients with respect to severity of symptoms, confirmatory status of COVID-19, hospitalisation requirement and recovery status.
Further to the overall outcome for each of the 3 patients from the phase IV studies CLARIFY-MS and MAGNIFY-MS, data on file includes some detail regarding extent and nature of symptoms COVID-19 and concomitant diseases and medications (Table 15).
Aside from COVID-19, no other adverse events or relevant concomitant diseases and medications are reported for Patient 3.

[2] = tested on: lymphocytes (ALC, CD19+ B, CD4+ T, CD8+ T); experiment: Post hoc analysis of ALC, lymphocyte subsets and lymphopenia by age (CLARITY, CLARITY Extension, ORACLE-MS, PREMIERE)
Description: Assessments included incidence and severity of Grade ≥3 lymphopenia; severity of Grade ≥3 lymphopenia was defined based on the NCI CTCAE v3.0 toxicity grading system as ALC levels <500 cells/μL. The time to recover from Grade 3 lymphopenia to Grade ≤2 (ALC ≥500 cells/μL) and to Grade ≤1 (ALC ≥800 cells/μL) were also assessed. […] All assessments were performed for each baseline age group (≤50 years and >50 years).

seasonal influenza = assay type: in vivo, influenza A and B
[3] = tested on: Influenza strain Yamagata (Phuket/B); experiment: Hemagglutination inhibition (HAI) antibody titer, Yamagata (Phuket/B); assay type: in vivo, influenza B virus; settings: 12 patients
lymphocytes = experiment: Absolute lymphocyte count (ALC) in vaccinated MAGNIFY-MS patients; assay type: in vivo, human
[4] = Incidence rates of infections in the clinical trial program of cladribine tablets
IgG and IgM = experiment: Serum immunoglobulin levels (IgG, IgM) under cladribine tablets
[5] = tested on: lymphocytes (ALC, CD19+ B, CD4+ T, CD8+ T); settings: second treatment year (Giovannoni et al., 2010); cited from earlier work
[6] = human, in vivo
[7] = TEAEs of viral and bacterial infections in patients with Grade ≥3 lymphopenia, by age; assay type: in vivo, human; settings: for incidence of bronchitis / incidence of herpes zoster / incidence of pneumonia / incidence of respiratory tract infection: Grade ≥3 lymphopenia; for overall incidence of TEAEs of viral and bacterial infections: Weeks 0-96, Grade ≥3 lymphopenia
Description: The definitions used for before, during, and after lymphopenia were: before (before the start date of the first lymphopenia Grade ≥3), during (on or after the start date of the first lymphopenia up and including to the last date of the last lymphopenia), and after (after the end date of the last lymphopenia). The incidence of TEAEs were summarized by Preferred Term (PT) and were coded according to the MedDRA dictionary Version 20.0. All analyses were performed using Statistical Analysis Software (SAS®), Version 9.4 or higher.

COVID-19 [8] = experiment: COVID-19 cases in cladribine tablets treated MS patients (Merck KGaA Global Patient Safety Database); assay type: in vivo, human
Description: On this date, there were 46 patients with confirmed or suspected COVID-19 within the safety database. Patient age was available for 35 patients, with a range of 22-67 years. There were 26 females, 12 males, and 8 patients for whom gender was not reported. Cases were defined as confirmed if a confirmatory diagnostic test was reported as positive. If no confirmatory test was performed or reported, then cases were described as suspected. […] Cases were designated as serious if they fulfilled the criteria of hospitalized, considered to be life-threatening, or medically significant. In keeping with usual pharmacovigilance practices, outcome was classified as recovered, recovering, not recovered, fatal, or not reported.

[9] = tested on: Influenza strain Victoria (Colorado/B); experiment: Hemagglutination inhibition (HAI) antibody titer, Victoria (Colorado/B); assay type: in vivo, influenza B virus; settings: 12 patients
[10] = tested on: varicella zoster virus (VZV); assay type: in vivo; settings: all time points examined, MAGNIFY patients
clinical = settings: human, plasma, po, 10 mg
[11] = Patient Canada VZV-70056800222530003, month 0, 9.7 wk after Shingrix, before first Mavenclad dose
[12] = Patient Canada VZV-70056800222530003, month 3, 23.0 wk after Shingrix, 13.3 wk after first Mavenclad dose

## Nc1nc(Cl)nc2c1ncn2[C@H]1C[C@H](O)[C@@H](CO)O1 [cladribine tablets, Cladribine]
COVID-19 [1]; BL (baseline), c1-c3 = Patient 1, 2 (CLARIFY-MS), 3 (MAGNIFY-MS)
  Lymphocyte counts: 1.48 G/L and 2.80 G/L and 2.39 G/L
COVID-19 [1]; M14 (January 2020), Patient 1
  Lymphocyte counts: 0.49 G/L
COVID-19 [1]; Uns v. (17 Mar. 2020), Patient 2
  Lymphocyte counts: 0.20 G/L
COVID-19 [1]; c1-c3 = Patient 1, 2, 3
  Adverse events: Asthmatic bronchitis and Tachycardia and None and Swollen glands and Angina pectoris and Poss. reaction of EBV -
  COVID-19 severity: SAE, Severe,; also recorded: Mild, not serious (no
[2]; Age >50
  Median (range) time to recovery from the first Grade ≥3 lymphopenia to Grade ≤1: 6.06 (range: 0.2-46.5) months
  Median (range) time to recovery from the first Grade ≥3 lymphopenia to Grade ≤2: 1.54 (range: 0.2-29.9) months
  mean (SD) number of episodes of recovery from Grade ≥3 lymphopenia to Grade ≤1 per patient: 1.3 (0.5)
[2]; Age ≤50
  Median (range) time to recovery from the first Grade ≥3 lymphopenia to Grade ≤1: 5.49 (range: 0.2-88.4) months
  Median (range) time to recovery from the first Grade ≥3 lymphopenia to Grade ≤2: 1.18 (range: 0.2-22.3) months
  mean (SD) number of episodes of recovery from Grade ≥3 lymphopenia to Grade ≤1 per patient: 1.2 (0.5)
[2]; Week 9, Age >50
  ALC decrease from baseline: 52.4%
  CD8+ T lymphocytes decrease from baseline: 43.4%
  CD19+ B lymphocytes decrease from baseline: 93.8%
  median (range) ALC at Year 1 nadir: 0.9 (0.3-2.5) ×10^9 cells/L
[2]; Week 9, Age ≤50
  ALC decrease from baseline: 43.5%
  CD19+ B lymphocytes decrease from baseline: 90.2%
  median (range) ALC at Year 1 nadir: 1.05 (0.2-6.7) ×10^9 cells/L
[2]; Week 60, Age ≤50
  CD4+ T lymphocytes decrease from baseline: 66.4%
[2]; Week 72, Age >50
  CD4+ T lymphocytes decrease from baseline: 73.7%
[2]; Week 72, Age ≤50
  CD8+ T lymphocytes decrease from baseline: 41.8%
[2]; Weeks 0-96, Age >50 (30/110)
  incidence of Grade ≥3 lymphopenia: 27.2%
[2]; Weeks 0-96, Age ≤50 (205/813)
  incidence of Grade ≥3 lymphopenia: 25.2%
[2]; Year 1
  Grade 4 lymphopenia episodes: No Grade 4 lymphopenia episodes
[2]; Year 2, Age >50
  Grade ≥3 lymphopenia, patients: 20.0%
[2]; Year 2, Age ≤50
  Grade ≥3 lymphopenia, patients: 18.7%
[2]; Year 2, aged >50 years (1 patient)
  Grade 4 lymphopenia, patients: 1.0%
[2]; Year 2, aged ≤50 years (2 patients)
  Grade 4 lymphopenia, patients: 0.3%
[2]; Year 2 nadir, Age >50
  ALC decrease from baseline: 58.2%
[2]; Year 2 nadir, Age ≤50
  ALC decrease from baseline: 55.4%
[2]; after last dose in treatment year 2
  recovery of ALC and lymphocyte subsets (CD19+ B and CD4+ T) to normal levels: 30-43 weeks
[2]; treatment Year 1, Age >50
  Grade ≥3 lymphopenia, patients: 10.0%
[2]; treatment Year 1, Age ≤50
  Grade ≥3 lymphopenia, patients: 8.3%
Seasonal influenza; 8 patients
  proportion of previously seropositive patients (HAI≥40) with ≥2-fold increase against at least 1 strain: 87.5%
  proportion of previously seropositive patients (HAI≥40) with ≥4-fold increase against at least 1 strain: 37.5%
Seasonal influenza; all vaccinated patients
  post-vaccination seroprotection, all Influenza strains: 92-100%
Seasonal influenza; in vivo
  rate of 2-fold change in AB titer, all strains: 17-67%
[3]
  2-fold change: 17%
  4-fold change: 0%
  Post-vacc seroprotection: 92%
  Pre-vacc seroprotection: 75%
lymphocytes; Patient 70056800222010002, month 14, 1 month after vaccination
  absolute lymphocyte levels: 700 cells/µL
lymphocytes; Patient 70056800227010005, Month 6
  absolute lymphocyte levels: 900 cells/µL
lymphocytes; Patient Australia VZV-70056800221260001, month 2, 21.0 wk after Zostavax, 11.1 wk after first Mavenclad dose
  ALC: 960 cells/μL
lymphocytes; Patient Canada VZV-70056800222530003, Scr, 1.1 wk after Shingrix, 8.6 wk before first Mavenclad dose
  ALC: 2,100 cells/μL
lymphocytes; Patient Canada VZV-70056800222530003, month 2, 18.0 wk after Shingrix, 8.3 wk after first Mavenclad dose
  ALC: 800 cells/μL
lymphocytes; Patient Canada VZV-70056800222530003, month 12
  ALC: 1,110 cells/μL
lymphocytes; Patient Finland VZV-70056800221620004, month 2, 14.3 wk after Zostavax, 7.9 wk after first Mavenclad dose
  ALC: 670 cells/μL
lymphocytes; Shingrix case
  lymphocytes after first treatment course: 800 cells/µL
[4]; lymphopenia grade 0-2
  influenza incidence: 2.75 cases per 100 PY
[4]; lymphopenia grade 3-4
  influenza incidence: 3.35 /100 PY
IgG and IgM; 1, 2, 3, 6 and 12 month
  IgG immunoglobulin levels vs baseline: comparable to baseline
IgG and IgM; Month 3
  IgG, change vs baseline: +10%
  IgM, change vs baseline: −5%
IgG and IgM; Month 6
  IgG, change vs baseline: +11%
  IgM, change vs baseline: −13%
IgG and IgM; Month 12
  IgG, change vs baseline: +3%
  IgM, change vs baseline: +21%
IgG and IgM; Patient 70056800222520001
  IgG levels: not affected
IgG and IgM; Patient 70056800227010005, any timepoint after treatment
  IgG immunoglobulin levels: not affected
IgG and IgM; Patient Australia VZV-70056800221260001, month 3, 24.6 wk after Zostavax, 14.7 wk after first Mavenclad dose
  IgM: 59 mg/dL
IgG and IgM; [11]
  IgG: 1,410 mg/dL
  IgM: 190 mg/dL
IgG and IgM; [12]
  IgG: 1,510 mg/dL
  IgM: 166 mg/dL
IgG and IgM; month 12, still in the normal range
  IgM levels: slightly decreased
IgG and IgM; various time points
  immunoglobulin numbers after cladribine treatment: not decreased
[5]
  median ALC: above 800 cells/mL
[6]
  herpes zoster incidence: 0.83 episodes per 100 PY
  incidence rate of serious infections: 0.8 /100 PY
  incidence rate of total infections: 24.9 events per 100 patient-years (PY)
[7]; Age >50
  TEAEs of viral and bacterial infections during the Year 1 Grade ≥3 lymphopenia episode: 30%
  incidence of bronchitis: 10%
  incidence of herpes zoster: 13.3%
  incidence of pneumonia: 6.7%
  incidence of respiratory tract infection: 6.7%
[7]; Age >50 (1 patient)
  patients with TEAEs severe in intensity (pneumonia and bronchitis): 3.3%
[7]; Age >50 (16 patients)
  patients with TEAEs mild to moderate in intensity: 53.3%
[7]; Age ≤50
  TEAEs of viral and bacterial infections during the Year 1 Grade ≥3 lymphopenia episode: 21.5%
  incidence of bronchitis: 5.9%
  incidence of herpes zoster: 3.4%
  incidence of pneumonia: 1.0%
  incidence of respiratory tract infection: 1.5%
[7]; Age ≤50 (103 patients)
  patients with TEAEs mild to moderate in severity: 50.2%
[7]; Age >50 (17/30)
  overall incidence of TEAEs of viral and bacterial infections: 56.7%
[7]; Age ≤50 (105/205)
  overall incidence of TEAEs of viral and bacterial infections: 51.2%
COVID-19 [8]; 9/46 patients, min 0.24, max 1.2
  most recent lymphocyte count, median: 0.7 G/L
COVID-19 [8]; 21/46 patients
  median time to onset of COVID-19 from last dose: 180 days
  range of time to onset of COVID-19 from last dose: 3 to 559 days
COVID-19 [8]; confirmed cases
  COVID-19 cases medically significant: 1 cases
  COVID-19 cases requiring hospitalisation: 3 cases
  COVID-19 outcome: Not resolved: 1 cases
  COVID-19 outcome: Recovered: 8 cases
  COVID-19 outcome: Recovering: 2 cases
COVID-19 [8]; of 46 total cases
  confirmed COVID-19 cases: 18 cases
  suspected COVID-19 cases: 28 cases
COVID-19 [8]; of approximately 19,000 treated, as of 29 June 2020
  patients with confirmed or suspected COVID-19: 46 patients
COVID-19 [8]; patient from the Netherlands
  lymphocyte count between most recent course and onset of COVID-19: 0.87 G/L
COVID-19 [8]; suspected cases
  COVID-19 cases medically significant: 1 cases
  COVID-19 cases requiring hospitalisation: 1 cases
  COVID-19 outcome: Recovered: 6 cases
  COVID-19 outcome: Recovering: 5 cases
COVID-19 [8]; suspected or confirmed
  COVID-19 cases that received mechanical ventilation: None
  COVID-19 deaths: no deaths
  COVID-19 symptoms in the majority of patients: mild to moderate respiratory symptoms
[9]
  2-fold change: 17%
  4-fold change: 8%
  Post-vacc seroprotection: 92%
  Pre-vacc seroprotection: 83%
[10]
  post-vaccination antibody titer against VZV, protective titer: ≥ 100 IU/L
clinical
  bioavailability: 45.6%
